Here are results for one compound from paper PMC4661537 (2015).

Experiment [1] has as its system Spi-8R (RNA, aptamer) UAGACGGCAUGGGGAGACGCGACCGAAAUGGUGAAGGACGGGUCCAGUGCUUCGGCACUGUUGAGUAGAGUGUGAGCUCCGUAACUGGUCGCGUCACGUAAGAUGCUCCGGUUAGGGAGACGCGACCGAAAUGGUGAAGGACGGGUCCAGUGCUUCGGCACUGUUGAGUAGAGUGUGAGCUCCGUAACUGGUCGCGUCACUGAUGUACCGUUGAGCAGGGAGACGCGACCGAAAUGGUGAAGGACGGGUCCAGUGCUUCGGCACUGUUGAGUAGAGUGUGAGCUCCGUAACUGGUCGCGUCACUCGCUAGAGCAUGGUUUGGGAGACGCGACCGAAAUGGUGAAGGACGGGUCCAGUGCUUCGGCACUGUUGAGUAGAGUGUGAGCUCCGUAACUGGUCGCGUCACUGGGGCACGCCGUCUGGGGGAGACGCGACCGAAAUGGUGAAGGACGGGUCCAGUGCUUCGGCACUGUUGAGUAGAGUGUGAGCUCCGUAACUGGUCGCGUCACUUACUGCGACCGCAAUAGGGAGACGCGACCGAAAUGGUGAAGGACGGGUCCAGUGCUUCGGCACUGUUGAGUAGAGUGUGAGCUCCGUAACUGGUCGCGUCACGCGCGCAACCGGGUAGAGGGAGACGCGACCGAAAUGGUGAAGGACGGGUCCAGUGCUUCGGCACUGUUGAGUAGAGUGUGAGCUCCGUAACUGGUCGCGUCACGUAACUCACGGCGCUAUGGGAGACGCGACCGAAAUGGUGAAGGACGGGUCCAGUGCUUCGGCACUGUUGAGUAGAGUGUGAGCUCCGUAACUGGUCGCGUC
The experiment is described as follows: fluorescence association kinetics (koff/kon). The conditions noted are these: K+ 125 mM, Mg2+ 5 mM (folding buffer); 40 mM K-HEPES pH 7.5; 10 nM RNA (34.8 nM folded aptamer), DFHBI 200-600 nM; per aptamer; biphasic; per site.

For experiment [2], the system named is Spi-tRNA (RNA, aptamer) GCCCGGAUAGCUCAGUCGGUAGAGCAGCGGCCGGACGCAACUGAAUGAAAUGGUGAAGGACGGGUCCAGGUGUGGCUGCUUCGGCAGUGCAGCUUGUUGAGUAGAGUGUGAGCUCCGUAACUAGUCGCGUCCGGCCGCGGGUCCAGGGUUCAAGUCCCUGUUCGGGCGCCA
The experiment in a line: fluorescence activation. The note with it: K+ 125 mM, Mg2+ 5 mM (folding buffer); fluorescence slightly higher than single Spinach.

Experiment [3] deals with Spi (single Spinach aptamer, 24-2) (RNA, aptamer) GACGCAACUGAAUGAAAUGGUGAAGGACGGGUCCAGGUGUGGCUGCUUCGGCAGUGCAGCUUGUUGAGUAGAGUGUGAGCUCCGUAACUAGUCGCGUC
The experiment in a line: fluorescence association kinetics (koff/kon). The conditions noted are these: K+ 125 mM, Mg2+ 5 mM (folding buffer); 40 mM K-HEPES pH 7.5; 40 nM aptamer, DFHBI 200-600 nM; mean over concentrations; biphasic; per site.

The term KD denotes the constant that tells how readily two partners part at equilibrium. Higher therefore signals a looser complex.

In the case of `CC1=N/C(=C\c2cc(F)c(O)c(F)c2)C(=O)N1C`, the results for the KD in experiment [1] and in experiment [3] were 246 ± 67 nM and 303 ± 22 nM, respectively. Further, the binding entry in experiment [2] is reported as “yes”.
